Here are results for 14 compounds from article PMC4984408 (ChemistryOpen, 2016).

Where two headings read alike, the source gives them in different places.

The CC50 is the concentration at which the toxic effect on the cells reaches its halfway point. Read a low CC50 as harm at low concentration.

The subject of series [1] is yellow fever (YFV, 17 D strain of ASIBI). The class given is cell-based, yellow fever virus.
Series [2] concerns dengue viruses (DENV, serotype D2). The class given is cell-based, dengue virus.

With `NC(=O)c1ncn([C@@H]2O[C@H](COC(c3ccccc3)(c3ccccc3)c3ccccc3)[C@@H](OC(c3ccccc3)(c3ccccc3)c3ccccc3)[C@H]2O)n1` [5 B, 5′,3′‐bis‐O‐tritylribavirin], the “YFV inhibition [% Cells alive]” value in series [1] (5 μM), in series [1] (10 μM) and in series [1] (20 μM) was 0 % Cells alive throughout. The “D2 inhibition [% Cells alive]” value in series [2] (5 μM) and in series [2] (10 μM) was 0 % Cells alive each time. Further, in the series on Vero cells, the half-maximal cytotoxic concentration (CC50) was greater than 20 µM.
On to `O=c1[nH]c(=O)n([C@@H]2O[C@H](COC(c3ccccc3)(c3ccccc3)c3ccccc3)[C@@H](O)[C@H]2O)cc1F` [6 D, 5′‐O‐trityl‐5‐fluorouridine], for which the “YFV inhibition [% Cells alive]” value in series [1] (5 μM) and in series [1] (10 μM) was 0 % Cells alive throughout. In series [2], the “anti-DENV activity (in words)” value is “no inhibitory properties”. Further, the “D2 inhibition [% Cells alive]” value in series [2] (5 μM), in series [2] (10 μM) and in series [2] (20 μM) was 0 % Cells alive in each case.
Take `COc1ccc(C(OC[C@H]2O[C@@H](n3cc(F)c(=O)[nH]c3=O)[C@H](O)[C@@H]2O)(c2ccccc2)c2ccc(OC)cc2)cc1` [6 H, 5′‐O‐dimethoxytrityl‐5‐fluorouridine]: the “YFV inhibition [% Cells alive]” value is 9.22±0.46 % Cells alive in series [1] (5 μM) and 30.89±1.85 % Cells alive in series [1] (10 μM). The “D2 inhibition [% Cells alive]” value in series [2] (5 μM), in series [2] (10 μM) and in series [2] (20 μM) was 0 % Cells alive in each case. This compound also registered a half-maximal cytotoxic concentration (CC50) in the series with Vero cells greater than 20 µM.
Consider `COc1ccc(C(OC[C@H]2O[C@@H](n3ccc(=O)[nH]c3=O)[C@H](O)[C@@H]2O)(c2ccccc2)c2ccc(OC)cc2)cc1` [9 H, 5′‐O‐Dimethoxytrityluridine], for which the “D2 inhibition [% Cells alive]” value in series [2] (5 μM), in series [2] (10 μM) and in series [2] (20 μM) was 0 % Cells alive throughout. In the series on Vero cells, the 50% cytotoxic concentration (CC50) is greater than 20 µM.
Regarding `COc1ccc(C(OCC2OC(n3ccc(NC(C)=O)nc3=O)CS2)(c2ccccc2)c2ccc(OC)cc2)cc1` (stereo not shown) [12 H, 5′‐O‐Dimetoxytrityl‐N‐acetyl‐lamivudine], the “YFV inhibition [% Cells alive]” value is 0 % Cells alive in series [1] (5 μM), 0 % Cells alive in series [1] (10 μM) and 70.45±18.31 % Cells alive in series [1] (20 μM). Moreover, the “D2 inhibition [% Cells alive]” value in series [2] (5 μM), in series [2] (10 μM) and in series [2] (20 μM) was 0 % Cells alive throughout. In the series with Vero cells, this compound showed a CC50 greater than 20 µM.
For `O=c1[nH]c(=O)n([C@H]2C[C@H](O)[C@@H](COC(c3ccccc3)(c3ccccc3)c3ccccc3)O2)cc1I` [14 D, 5′‐O‐Trityl‐5‐iodo‐2′‐deoxyuridine], the “YFV inhibition [% Cells alive]” value in series [1] (5 μM), in series [1] (10 μM) and in series [1] (20 μM) was 0 % Cells alive each time. Besides, the “D2 inhibition [% Cells alive]” value is recorded as 0 % Cells alive in series [2] (5 μM), 0 % Cells alive in series [2] (10 μM) and 2.47±0.06 % Cells alive in series [2] (20 μM).
On to `COc1ccc(C(OC[C@H]2O[C@@H](n3cc(F)c(=O)[nH]c3=O)C[C@@H]2O)(c2ccccc2)c2ccc(OC)cc2)cc1` [15 H, 5′‐O‐dimethoxytrityl‐5‐fluoro‐2′‐deoxyuridine], for which, in series [1] (5 μM), the “YFV inhibition [% Cells alive]” value was found to be 0 % Cells alive. Besides, the “D2 inhibition [% Cells alive]” value in series [2] (5 μM), in series [2] (10 μM) and in series [2] (20 μM) was 0 % Cells alive each time. Moreover, the half-maximal cytotoxic concentration (CC50) in the series with Vero cells was greater than 20 µM.
Turning to `O=c1ccn([C@@H]2O[C@H](COC(c3ccccc3)(c3ccccc3)c3ccccc3)[C@@H](O)[C@H]2F)c(=O)[nH]1` [16 D, 5′‐O‐trityl‐2′‐fluoro‐2′‐deoxyuridine], the “YFV inhibition [% Cells alive]” value in series [1] (5 μM), in series [1] (10 μM) and in series [1] (20 μM) was 0 % Cells alive each time. Also, the “D2 inhibition [% Cells alive]” value in series [2] (5 μM) and in series [2] (10 μM) was 0 % Cells alive in each case.
On to `COc1ccc(C(OC[C@H]2O[C@@H](n3ccc(=O)[nH]c3=O)[C@H](F)[C@@H]2O)(c2ccccc2)c2ccc(OC)cc2)cc1` [16 H, 5′‐O‐dimethoxytrityl‐2′‐fluoro‐2′‐deoxyuridine], for which the “YFV inhibition [% Cells alive]” value in series [1] (5 μM) and in series [1] (10 μM) was 0 % Cells alive each time. In addition, the “D2 inhibition [% Cells alive]” value in series [2] (5 μM), in series [2] (10 μM) and in series [2] (20 μM) was 0 % Cells alive each time. In the series with Vero cells, the CC50 is greater than 20 µM.
With `Cc1cn([C@@H]2O[C@H](COC(c3ccccc3)(c3ccccc3)c3ccccc3)[C@@H](O)[C@H]2O)c(=O)[nH]c1=O` [19 D, 5′‐O‐trityl‐5‐methyluridine], the “YFV inhibition [% Cells alive]” value in series [1] (5 μM) and in series [1] (10 μM) was 0 % Cells alive each time. For the same compound, in series [2], the “anti-DENV activity (in words)” value was “no inhibitory properties”. Further, the “D2 inhibition [% Cells alive]” value in series [2] (5 μM), in series [2] (10 μM) and in series [2] (20 μM) was 0 % Cells alive throughout.
Regarding `O[C@H]1[C@H](O)[C@@H](COC(c2ccccc2)(c2ccccc2)c2ccccc2)O[C@H]1n1cnc2c(NC(c3ccccc3)(c3ccccc3)c3ccccc3)nc(F)nc21` [20 D‐NHTr, 5′‐O,N‐trityl‐fludarabine], the “anti-YFV activity (in words)” value in series [1] was “devoid of any significant anti‐YFV inhibitory effect”. Further, the “YFV inhibition [% Cells alive]” value turned out to be 0 % Cells alive in series [1] (5 μM), 0.28 % Cells alive in series [1] (10 μM) and 0.84 % Cells alive in series [1] (20 μM). For the same compound, the CC50 with Vero cells was greater than 20 µM. In addition, in the series on Vero cells, the “cytotoxicity (in words)” value is “no cytotoxicity”.
On to `Cc1cn([C@H]2C[C@H](OC(c3ccccc3)(c3ccccc3)c3ccccc3)[C@@H](COC(c3ccccc3)(c3ccccc3)c3ccccc3)O2)c(=O)[nH]c1=O` [21 B, 5′,3′‐bis‐O‐trityl‐thymidine], for which the “YFV inhibition [% Cells alive]” value in series [1] (5 μM) is 0 % Cells alive; in series [1] (10 μM), 0 % Cells alive; in series [1] (20 μM), 0.95±0.17 % Cells alive. Also, the “D2 inhibition [% Cells alive]” value in series [2] (5 μM), in series [2] (10 μM) and in series [2] (20 μM) was 0 % Cells alive throughout.
For the compound `O=c1[nH]c(NC(c2ccccc2)(c2ccccc2)c2ccccc2)nc2c1ncn2CCC(COC(c1ccccc1)(c1ccccc1)c1ccccc1)COC(c1ccccc1)(c1ccccc1)c1ccccc1` [22 B‐NHTr, 2‐N,5′,3′‐O‐tri‐trityl penciclovir], the entries for the “YFV inhibition [% Cells alive]” value in series [1] (5 μM), in series [1] (10 μM) and in series [1] (20 μM) were 0 % Cells alive, 0 % Cells alive and 8.09±0.04 % Cells alive, respectively. The “D2 inhibition [% Cells alive]” value in series [2] (5 μM), in series [2] (10 μM) and in series [2] (20 μM) was 0 % Cells alive throughout. This compound also registered a CC50 with Vero cells greater than 20 µM.
As to `Cc1cn([C@H]2C[C@H](O)[C@@H](COC(c3ccccc3)(c3ccccc3)c3ccccc3)O2)c(=O)[nH]c1=O` [Compound 1, 5′‐O‐trityl‐thymidine], the “YFV inhibition [% Cells alive]” value is on record as 0 % Cells alive in series [1] (5 μM) and 1.25±0.03 % Cells alive in series [1] (10 μM). The “anti-DENV activity (in words)” value in series [2] is recorded as “no inhibitory properties”. Besides, the “D2 inhibition [% Cells alive]” value in series [2] (5 μM), in series [2] (10 μM) and in series [2] (20 μM) was 0 % Cells alive throughout.
